Assay results from ChEMBL document CHEMBL3638619, “Oxazole and thiazole compounds as KSP inhibitors” (2014).

Target: T1, Kinesin-like protein KIF11 (Homo sapiens, UniProt P52732)
T1 sequence (P52732 whole entry): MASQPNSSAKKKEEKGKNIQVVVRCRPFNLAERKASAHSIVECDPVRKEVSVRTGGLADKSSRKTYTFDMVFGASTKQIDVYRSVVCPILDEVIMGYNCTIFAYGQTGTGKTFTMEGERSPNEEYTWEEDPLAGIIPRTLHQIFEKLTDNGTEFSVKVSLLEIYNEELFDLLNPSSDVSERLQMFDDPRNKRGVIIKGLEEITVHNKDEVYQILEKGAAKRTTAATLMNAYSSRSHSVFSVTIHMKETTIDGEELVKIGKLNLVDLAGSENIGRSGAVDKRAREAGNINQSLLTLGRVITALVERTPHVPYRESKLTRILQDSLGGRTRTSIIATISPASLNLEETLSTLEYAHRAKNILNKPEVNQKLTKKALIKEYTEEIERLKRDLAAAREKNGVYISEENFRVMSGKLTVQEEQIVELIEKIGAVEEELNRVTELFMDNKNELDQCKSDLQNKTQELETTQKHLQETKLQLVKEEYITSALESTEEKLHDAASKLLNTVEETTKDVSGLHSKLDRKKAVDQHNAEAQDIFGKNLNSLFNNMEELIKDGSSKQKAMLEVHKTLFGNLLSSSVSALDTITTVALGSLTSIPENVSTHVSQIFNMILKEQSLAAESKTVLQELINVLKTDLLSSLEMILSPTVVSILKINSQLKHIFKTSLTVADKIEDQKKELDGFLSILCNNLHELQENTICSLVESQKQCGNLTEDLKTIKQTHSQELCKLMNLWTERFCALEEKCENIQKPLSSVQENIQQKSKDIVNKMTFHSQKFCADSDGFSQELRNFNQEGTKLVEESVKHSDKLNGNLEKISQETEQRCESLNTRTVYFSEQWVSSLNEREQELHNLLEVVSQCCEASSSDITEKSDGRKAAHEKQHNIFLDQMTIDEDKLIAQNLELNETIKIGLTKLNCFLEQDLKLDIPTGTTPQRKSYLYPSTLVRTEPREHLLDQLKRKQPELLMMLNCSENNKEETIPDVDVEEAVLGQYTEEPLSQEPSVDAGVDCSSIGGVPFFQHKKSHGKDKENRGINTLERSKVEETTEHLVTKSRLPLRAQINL
Experiment: In Vitro Assay: This example provides a representative in vitro assay for determining KSP activity in vitro. Purified microtubules obtained from bovine brain were purchased from Cytoskeleton Inc. (Denver, Colo., USA). The motor domain of human KSP (Eg 5, KNSL1) was cloned, expressed, and purified to greater than 95% homogeneity. Biomol Green was purchased from Affinity Research Products Ltd. (Matford Court, Exeter, Devon, United Kingdom). Microtubules and KSP motor protein (i.e., the KSP motor domain) were diluted in assay buffer (20 mM Tris-HCl (pH 7.5), 1 mM MgCl2, 10 mM DTT and 0.25 mg/mL BSA) to a final concentration of 35 μg/mL microtubules and 45 nM KSP. The microtubule/KSP mixture was then pre-incubated at 37 C. for 10 min to promote the binding of KSP to microtubules.

- IC50: 216 nM
Compound: C[C@H](O)C(=O)N(CC[C@H](N)CF)[C@H](c1nc(-c2cc(F)ccc2F)sc1Cc1ccccc1)C(C)(C)C
